Source: patent US10206909B2, “3-(1H-pyrrolo[2,3-B]pyridin-2-yl)-1H-pyrazolo[4,3-B]pyridines and therapeutic uses thereof” (Samumed, LLC, priority 2015, dated 2019)

Experiments:
Assay type in all cases: cell-based
[1] = test system: primary human fibroblasts derived from IPF patients (LL29 cells); experiment: Inhibition of the fibrotic process: αSMA staining in TGF-β1 treated fibroblasts; settings: Fibroblast, 96 h, LL29 cells, TGF-β1 20 ng/mL, 4 days, % αSMA positive cells
Text: Representative compounds were screened using primary human fibroblasts (derived from IPF patients) treated with TGF-β1 to determine their ability to inhibit the fibrotic process.
Human Fibroblast Cell Culture: Primary human fibroblasts derived from IPF patients (LL29 cells) [^1Xiaoqiu Liu, et. al., “Fibrotic Lung Fibroblasts Show Blunted Inhibition by cAMP Due to Deficient cAMP Response Element-Binding Protein Phosphorylation”, Journal of Pharmacology and Experimental Therapeutics (2005), 315(2), 678-687; ^2Watts, K. L., et. al., “RhoA signaling modulates cyclin D1 expression in human lung fibroblasts; implications for idiopathic pulmonary fibrosis”, Respiratory Research (2006), 7(1), 88] were obtained from American Type Culture Collection (ATCC) and expanded in F12 medium supplemented with 15% Fetal Bovine Serum and Penicillin/Streptomycin.
Compound Screening: Each compound was dissolved in DMSO as a 10 mM stock and used to prepare compound source plates. Serial dilution (1:2, 11-point dose-response curves from 10 μM to […]) and compound transfer was performed using the ECHO 550 (Labcyte, Sunnyvale, Calif.) into 384-well clear bottom assay plates (Greiner Bio-One) with appropriate DMSO backfill for a final DMSO concentration of 0.1%. LL29 cells are plated at 1,500 cells/well in 80 μL/well F12 medium supplemented with 1% Fetal Bovine Serum. One hour after addition of the cells, TGF-β1 (Peprotech; 20 ng/mL) was added to the plates to induce fibrosis (ref. 1 and 2 above). Wells treated with TGF-β1 and containing DMSO were used as controls. Cells were incubated at 37° C. and 5% CO2 for 4 days. Following incubation for 4 days, SYTOX green nucleic acid stain (Life Technologies [Thermo Fisher Scientific]) was added to the wells at a final concentration of 1 μM and incubated at room temperature for 30 min. Cells were then fixed using 4% formaldehyde (Electron Microscopy Sciences), washed 3 times with PBS followed by blocking and permeabilization using 3% Bovine Serum Albumin (BSA; Sigma) and 0.3% Triton X-100 (Sigma) in PBS. Cells were then stained with antibody specific to α-smooth muscle actin (αSMA; Abcam) (ref. 1 and 2 above) in 3% Bovine Serum Albumin (BSA; Sigma) and 0.3% Triton X-100 (Sigma) in PBS, and incubated overnight at 4° C. Cells were then washed 3 times with PBS, followed by incubation with Alexa Flor-647 conjugated secondary antibody (Life Technologies [Thermo Fisher Scientific]) and DAPI at room temperature for 1 hour. Cells were then washed 3 times with PBS and plates were sealed for imaging. αSMA staining was imaged by excitation at 630 nm and emission at 665 nm and quantified using the Compartmental Analysis program on the CellInsight CX5 (Thermo Scientific). Dead or apoptotic cells were excluded from analysis based on positive SYTOX green staining. % of total cells positive for αSMA were counted in each well and normalized to the average of 11 wells treated with TGF-β1 on the same plate using Dotmatics' Studies Software. The normalized averages (fold change over untreated) of 3 replicate wells for each compound concentration were used to create dose-responses curves and EC50 values were calculated using non-linear regression curve fit in the Dotmatics' Studies Software. For EC50 of >10 μM, the percent inhibition at 10 μM is provided.

SW480 colon cancer cells = experiment: Cell viability assay (CellTiter-Blue); settings: Homo sapiens, 96 h; SW480 cell viability, four days, CellTiter-Blue
Procedure: Representative compounds were screened using the following assay procedure to assess the effect on cell viability as described below.
Each compound was dissolved in DMSO as a 10 mM stock and used to prepare compound source plates. Serial dilution (1:3, 8-point dose-response curves from 10 μM to 0.0045 μM) and compound transfer was performed using the ECHO 550 (Labcyte, Sunnyvale, Calif.) into 96-well clear bottom, black-walled plates (Corning-Costar).
Approximately 2×10^3 SW480 colon cancer cells were seeded into each well and allowed to incubate in the presence or absence of compound for four days at 37° C./5% CO2. Eight replicates of DMSO-treated cells served as controls and cells treated with compound were performed in duplicate.
After incubation, 20 μL of CellTiter-Blue (Promega) was added to each well allowed to incubate for approximately 3 hours. This reagent was a buffered solution which contains resazurin, metabolically active cells were able to reduce rezarurin (blue) into resorufin (pink) which was highly fluorescent. This measured fluorescence was used as a readout for cell viability.
After incubation, the plates were read at Ex 560 nm Em 590 nm (Cytation 3, BioTek). Dose-response curves were generated and EC50 concentration values were calculated using non-linear regression curve fit in the GraphPad Prism (San Diego, Calif.) or Dotmatics' Studies Software (Bishops Stortford, UK). For EC50 of >10 μM, the percent inhibition at 10 μM is provided.

[2] = test system: Wnt activity (Sp5-Luc reporter, SW480 colon carcinoma cells); experiment: Wnt activity screening assay: Sp5-Luc reporter gene assay in SW480 cells; settings: Homo sapiens, SW480 cells, overnight incubation
Text: The screening assay for Wnt activity is described as follows. Reporter cell lines can be generated by stably transducing cancer cell lines (e.g., colon cancer) or primary cells (e.g., IEC-6 intestinal cells) with a lentiviral construct that includes a Wnt-responsive promoter driving expression of the firefly luciferase gene.
SW480 colon carcinoma cells were transduced with a lentiviral vector expressing luciferase with a human Sp5 promoter consisting of a sequence of eight TCF/LEF binding sites. SW480 cells stably expressing the Sp5-Luc reporter gene and a hygromycin resistance gene were selected by treatment with 150 μg/mL of hygromycin for 7 days. These stably transduced SW480 cells were expanded in cell culture and used for all further screening activities. Each compound was dissolved in DMSO as a 10 mM stock and used to prepare compound source plates. Serial dilution (1:3, 10-point dose-response curves starting from 10 μM) and compound transfer was performed using the ECHO 550 (Labcyte, Sunnyvale, Calif.) into 384-well white solid bottom assay plates (Greiner Bio-One) with appropriate DMSO backfill for a final DMSO concentration of 0.1%. For Sp5-Luc reporter gene assays, the cells were plated at 4,000 cells/well in 384-well plates with medium containing 1% fetal bovine serum and incubated overnight at 37° C. and 5% CO2. Following incubation, 20 μl of BrightGlo luminescence reagent (Promega) was added to each well of the 384-well assay plates. The plates were placed on an orbital shaker for 2 min and then luminescence was quantified using the Envision (Perkin Elmer) plate reader. Readings were normalized to DMSO only treated cells, and normalized activities were utilized for EC50 calculations using the dose-response log (inhibitor) vs. response -variable slope (four parameters) nonlinear regression feature available in GraphPad Prism 5.0 (or Dotmatics). For EC50 of >10 μM, the percent inhibition at 10 μM is provided.

IL-6 (THP-1 cells) = experiment: IL-6 inhibition in LPS-stimulated THP-1 cells (HTRF); settings: Homo sapiens; THP-1 cells, LPS 500 ng/mL, 22 hours, IL6 HTRF
Procedure: Human Monocyte Cell Culture: Human monocyte cell line (THP-1 cells; Catalog # TIB-202, ATCC, Manassas, Va.) were cultured in Roswell Park Memorial Institute (RPMI) 1640 Medium (Catalog #21870-100, Buffalo, N.Y.) with 1% L-glutamine, 1% HEPES, 1% Sodium Pyruvate, 2% Sodium Bicarbonate supplemented with 100 units/mL penicillin, 50 μg/mL streptomycin, 2-mercaptoethanol (0.05 mM) [basal medium] and 10% fetal bovine serum (Catalog #16140089, Life Technologies, Carlsbad, Calif.) at 37° C. and 5% CO2.
Compound Screening: THP-1 cells were cultured in basal media with 1% FBS for 24 hours before the start of the assay. Each compound was dissolved in DMSO as a 10 mM stock and used to prepare compound source plates. Serial dilution (1:3, 10-point dose-response curves starting from 10 μM) and compound transfer was performed using the ECHO 550 (Labcyte, Sunnyvale, Calif.) into 384-well white low volume assay plates (Greiner Bio-One) with appropriate DMSO backfill for a final DMSO concentration of 0.1%. THP-1 cells were plated at 5000 cells/well in the 384-well plates and incubated at 37° C. for 2 h. 500 ng/mL of LPS was added after 2 hours and cells were incubated for another 22 hours at 37° C. Plates were spun in a centrifuge for 1 minute at […] and a mixture of anti-IL6 XL665, and anti-IL6 Cryptate diluted in reconstitution buffer (Cisbio Inc.) was added to each well. Following incubation for 3 hrs at room temperature, Homogeneous Time-Resolved Fluorescence (HTRF) was measured using the Envision (Perkin Elmer) at 665 nm and […]. The ratio of fluorescence at 665 nm to 620 nm was used as a readout for IL6 quantification. All samples were processed in duplicate. Readings were normalized to DMSO treated cells and normalized activities were utilized for EC50 calculations using the dose-response log (inhibitor) vs. response —variable slope (four parameters) nonlinear regression feature available in GraphPad Prism 5.0 (or Dotmatics). For EC50 of >10 μM, the percent inhibition at 10 μM is provided.

Row | EC50 (SW480 colon cancer cells) [nM] | EC50 [2] [nM] | EC50 (IL-6 (THP-1 cells)) [nM] | SMILES | EC50 [1] [nM]
1 | 4270 | 1340 | 1350 | CC(C)Nc1cncc(-c2ccc3[nH]nc(-c4cc5c(-c6cccs6)ccnc5[nH]4)c3n2)c1 [Compound 348, N-Isopropyl-5-(3-(4-(thiophen-2-yl)-1H-pyrrolo[2,3-b]pyridin-2-yl)-1H-pyrazolo[4,3-b]pyridin-5-yl)pyridin-3-amine] | 994
2 | 1940 | 1500 | 9 | CN(C)CCNc1cc(F)cc(-c2ccnc3[nH]c(-c4n[nH]c5ccc(-c6cncc(NC(=O)c7ccccc7)c6)nc45)cc23)c1 [Compound 459, N-(5-(3-(4-(3-((2-(Dimethylamino)ethyl)amino)-5-fluorophenyl)-1H-pyrrolo [2,3-b]pyridin-2-yl)-1H-pyrazolo[4,3-b]pyridin-5-yl)pyridin-3-yl)benzamide] | 738
